Tested on: healthy subjects
Test: Phase 1 study: adverse events (TEAEs, MedDRA coded)
Type: in vivo, human
Procedure: A Phase 1 randomized, double-blind, placebo-controlled study to evaluate the effect of psilocybin on cognitive and emotional processing as compared to placebo in healthy volunteers was conducted. The study investigated the short-term (Day 7) and long-term (Day 28) effects of moderate (10 mg) and high doses (25 mg) of psilocybin on key domains of cognition, such as episodic memory, attention, working and spatial memory, social cognition and elements of executive function, including cognitive flexibility.
Each subject was assigned 1 treatment bottle containing 5 capsules packaged in a double-blind fashion, depending on the randomized treatment arm, the bottle contained one of the following: • a. Psilocybin 10 mg: 2×5-mg oral psilocybin capsules plus 3×placebo capsules • b. Psilocybin 25 mg: 5×5-mg oral psilocybin capsules • c. Placebo: 5×placebo capsules
Each 5-mg oral psilocybin capsules comprised 5 mg crystalline psilocybin in the form or Polymorph A, 12.5 mg of SMCC 50, 79.5 mg of SMCC 90, 1 mg sodium starch glycolate, 1 mg colloidal silicon dioxide, and 1 mg sodium stearyl fumarate
Adverse events: Throughout the course of the study, all AEs were monitored and recorded. Each AE was classified according to the following criteria: • i. […] Moderate: The AE produces some impairment of functioning, but is not hazardous to the subject's health. • iii. Severe: The AE produces significant impairment of functioning or incapacitation and is a definite hazard to the subject's health.
Visit 3 (V3): Drug Administration (Day 0): The subject was asked to eat a light breakfast at least two hours prior to coming to the clinic for study drug administration. On Day 0 (V3), the subject underwent the SSTS, had vital signs obtained, medications reviewed, AEs recorded and eligibility reviewed prior to being randomized to study drug. The study drug was administered to up to six subjects simultaneously in individual beds separated by a curtain. The subject was invited to put on eyeshades and headphones, lie down and listen to calming music for the rest of the session (six hours). The subject was supported 1:1 with a chaperone and supervised by the study psychiatrist and lead therapist.
During administration of psilocybin, each subject received one-on-one support from a trained assisting therapist and each dosing session was supervised by a study psychiatrist and a lead therapist. The study drug was administered simultaneously to up to six participants as a single 5-capsule oral dose (10 mg psilocybin: 2×5-mg psilocybin capsules plus 3×placebo capsules; 25 mg psilocybin: 5×5-mg psilocybin capsules; placebo: 5×placebo capsules). Twenty-five dosing sessions were completed, with up to six participants dosed simultaneously per session. Each session lasted approximately 6 to 8 hours with subjects encouraged to relax and engage in introspection for the duration. After the acute effects of the study drug had subsided, subjects were discharged.

Structure (SMILES): CN(C)CCc1c[nH]c2cccc(OP(=O)(O)O)c12 [Psilocybin, psilocybin]
- Illusion, Events (25 mg oral): 26
- Illusion, N (%) (25 mg oral): 18 (60.0)
- Illusion, worst severity Mild, Events (25 mg oral): 4
- Illusion, worst severity Mild, N (%) (25 mg oral): 3 (10.0)
- Illusion, worst severity Moderate, Events (25 mg oral): 12
- Illusion, worst severity Moderate, N (%) (25 mg oral): 10 (33.3)
- Illusion, worst severity Severe, Events (25 mg oral): 7
- Illusion, worst severity Severe, N (%) (25 mg oral): 5 (16.7)
- Infections and infestations, Events (25 mg oral): 4
- Infections and infestations, N (%) (25 mg oral): 4 (13.3)
- Infections and infestations, worst severity Mild, Events (25 mg oral): 4
- Infections and infestations, worst severity Mild, N (%) (25 mg oral): 4 (13.3)
- Infections and infestations, worst severity Moderate, Events (25 mg oral): 0
- Infections and infestations, worst severity Moderate, N (%) (25 mg oral): 0
- Infections and infestations, worst severity Severe, Events (25 mg oral): 0
- Infections and infestations, worst severity Severe, N (%) (25 mg oral): 0
- Investigations, Events (25 mg oral): 1
- Investigations, N (%) (25 mg oral): 1 (3.3)
- Investigations, worst severity Mild, Events (25 mg oral): 1
- Investigations, worst severity Mild, N (%) (25 mg oral): 1 (3.3)
- Investigations, worst severity Moderate, Events (25 mg oral): 0
- Investigations, worst severity Moderate, N (%) (25 mg oral): 0
- Investigations, worst severity Severe, Events (25 mg oral): 0
- Investigations, worst severity Severe, N (%) (25 mg oral): 0
- Memory impairment, Events (25 mg oral): 0
- Memory impairment, N (%) (25 mg oral): 0
- Mental fatigue, Events (25 mg oral): 3
- Mental fatigue, N (%) (25 mg oral): 3 (10.0)
- Mood altered, Events (25 mg oral): 25
- Mood altered, N (%) (25 mg oral): 15 (50.0)
- Mood altered, worst severity Mild, Events (25 mg oral): 3
- Mood altered, worst severity Mild, N (%) (25 mg oral): 2 (6.7)
- Mood altered, worst severity Moderate, Events (25 mg oral): 7
- Mood altered, worst severity Moderate, N (%) (25 mg oral): 6 (20.0)
- Mood altered, worst severity Severe, Events (25 mg oral): 9
- Mood altered, worst severity Severe, N (%) (25 mg oral): 7 (23.3)
- Musculoskeletal and connective tissue disorders, Events (25 mg oral): 4
- Musculoskeletal and connective tissue disorders, N (%) (25 mg oral): 3 (10.0)
- Musculoskeletal and connective tissue disorders, worst severity Mild, Events (25 mg oral): 3
- Musculoskeletal and connective tissue disorders, worst severity Mild, N (%) (25 mg oral): 2 (6.7)
- Musculoskeletal and connective tissue disorders, worst severity Moderate, Events (25 mg oral): 1
- Musculoskeletal and connective tissue disorders, worst severity Moderate, N (%) (25 mg oral): 1 (3.3)
- Musculoskeletal and connective tissue disorders, worst severity Severe, Events (25 mg oral): 0
- Musculoskeletal and connective tissue disorders, worst severity Severe, N (%) (25 mg oral): 0
- Nausea, Events (25 mg oral): 3
- Nausea, N (%) (25 mg oral): 3 (10.0)
- Nervous system disorders, Events (25 mg oral): 43
- Nervous system disorders, N (%) (25 mg oral): 25 (83.3)
- Nervous system disorders, worst severity Mild, Events (25 mg oral): 24
- Nervous system disorders, worst severity Mild, N (%) (25 mg oral): 16 (53.3)
- Nervous system disorders, worst severity Moderate, Events (25 mg oral): 10
- Nervous system disorders, worst severity Moderate, N (%) (25 mg oral): 8 (26.7)
- Nervous system disorders, worst severity Severe, Events (25 mg oral): 1
- Nervous system disorders, worst severity Severe, N (%) (25 mg oral): 1 (3.3)
- Paraesthesia, Events (25 mg oral): 4
- Paraesthesia, N (%) (25 mg oral): 4 (13.3)
- Paraesthesia, worst severity Mild, Events (25 mg oral): 3
- Paraesthesia, worst severity Mild, N (%) (25 mg oral): 3 (10.0)
- Paraesthesia, worst severity Moderate, Events (25 mg oral): 1
- Paraesthesia, worst severity Moderate, N (%) (25 mg oral): 1 (3.3)
- Paraesthesia, worst severity Severe, Events (25 mg oral): 0
- Paraesthesia, worst severity Severe, N (%) (25 mg oral): 0
- Psychiatric disorders, Events (25 mg oral): 135
- Psychiatric disorders, N (%) (25 mg oral): 29 (96.7)
- Psychiatric disorders, worst severity Mild, Events (25 mg oral): 5
- Psychiatric disorders, worst severity Mild, N (%) (25 mg oral): 4 (13.3)
- Psychiatric disorders, worst severity Moderate, Events (25 mg oral): 45
- Psychiatric disorders, worst severity Moderate, N (%) (25 mg oral): 16 (53.3)
- Psychiatric disorders, worst severity Severe, Events (25 mg oral): 27
- Psychiatric disorders, worst severity Severe, N (%) (25 mg oral): 9 (30.0)
- Psychomotor skills impaired, Events (25 mg oral): 0
- Psychomotor skills impaired, N (%) (25 mg oral): 0
- Respiratory, thoracic and mediastinal disorders, Events (25 mg oral): 3
- Respiratory, thoracic and mediastinal disorders, N (%) (25 mg oral): 3 (10.0)
- Selected TEAE: Nervous system disorders, Events (25 mg oral): 0
- Selected TEAE: Nervous system disorders, N (%) (25 mg oral): 0
- Selected TEAE: Psychiatric disorders, Events (25 mg oral): 106
- Selected TEAE: Psychiatric disorders, N (%) (25 mg oral): 27 (90.0)
- Somatic hallucination, Events (25 mg oral): 6
- Somatic hallucination, N (%) (25 mg oral): 5 (16.7)
- Somatic hallucination, worst severity Mild, Events (25 mg oral): 2
- Somatic hallucination, worst severity Mild, N (%) (25 mg oral): 2 (6.7)
- Somatic hallucination, worst severity Moderate, Events (25 mg oral): 2
- Somatic hallucination, worst severity Moderate, N (%) (25 mg oral): 2 (6.7)
- Somatic hallucination, worst severity Severe, Events (25 mg oral): 2
- Somatic hallucination, worst severity Severe, N (%) (25 mg oral): 1 (3.3)
- Substance-induced psychotic disorder, Events (25 mg oral): 1
- Substance-induced psychotic disorder, N (%) (25 mg oral): 1 (3.3)
- Tension headache, Events (25 mg oral): 6
- Tension headache, N (%) (25 mg oral): 6 (20.0)
- Tension headache, worst severity Mild, Events (25 mg oral): 4
- Tension headache, worst severity Mild, N (%) (25 mg oral): 4 (13.3)
- Tension headache, worst severity Moderate, Events (25 mg oral): 2
- Tension headache, worst severity Moderate, N (%) (25 mg oral): 2 (6.7)
- Tension headache, worst severity Severe, Events (25 mg oral): 0
- Tension headache, worst severity Severe, N (%) (25 mg oral): 0
- Time perception altered, Events (25 mg oral): 6
- Time perception altered, N (%) (25 mg oral): 6 (20.0)
- Time perception altered, worst severity Mild, Events (25 mg oral): 2
- Time perception altered, worst severity Mild, N (%) (25 mg oral): 2 (6.7)
- Time perception altered, worst severity Moderate, Events (25 mg oral): 4
- Time perception altered, worst severity Moderate, N (%) (25 mg oral): 4 (13.3)
- Time perception altered, worst severity Severe, Events (25 mg oral): 0
- Time perception altered, worst severity Severe, N (%) (25 mg oral): 0
- Adverse events reported by % of subjects (25 mg oral, 12-week study): 96.7%
- Reported 'Mood altered' events: Being less judgmental (number) (25 mg psilocybin (n = 30)): 0
- Reported 'Mood altered' events: Calm (number) (25 mg psilocybin (n = 30)): 0
- Reported 'Mood altered' events: Clarity of thought (number) (25 mg psilocybin (n = 30)): 1
- Reported 'Mood altered' events: Contemplative state (number) (25 mg psilocybin (n = 30)): 1
- Reported 'Mood altered' events: Feeling more moody/sensitive (number) (25 mg psilocybin (n = 30)): 0
- Reported 'Mood altered' events: Feeling of adrenaline release (number) (25 mg psilocybin (n = 30)): 0
- Reported 'Mood altered' events: Feeling rested (number) (25 mg psilocybin (n = 30)): 0
- Reported 'Mood altered' events: Increased compassion (number) (25 mg psilocybin (n = 30)): 1
- Reported 'Mood altered' events: Increased creativity (number) (25 mg psilocybin (n = 30)): 1
- Reported 'Mood altered' events: Increased empathy (number) (25 mg psilocybin (n = 30)): 2
- Reported 'Mood altered' events: Increased sense of connectedness (number) (25 mg psilocybin (n = 30)): 1
- Reported 'Mood altered' events: Increased wit (number) (25 mg psilocybin (n = 30)): 0
- Reported 'Mood altered' events: Introspection (number) (25 mg psilocybin (n = 30)): 8
- Reported 'Mood altered' events: Laughter (number) (25 mg psilocybin (n = 30)): 1
- Reported 'Mood altered' events: More socially upbeat (number) (25 mg psilocybin (n = 30)): 1
- Reported 'Mood altered' events: Negative mood (number) (25 mg psilocybin (n = 30)): 0
- Reported 'Mood altered' events: Reflections (number) (25 mg psilocybin (n = 30)): 4
- Reported 'Mood altered' events: Saw themselves from a new perspective (number) (25 mg psilocybin (n = 30)): 1
- Reported 'Mood altered' events: Sense of oneness (number) (25 mg psilocybin (n = 30)): 2
- Reported 'Mood altered' events: Sense of openness (number) (25 mg psilocybin (n = 30)): 0
- Reported 'Mood altered' events: Unusual appreciation of music (number) (25 mg psilocybin (n = 30)): 0
- Adverse events that appeared and resolved on day 0 (day of dosing) (all adverse events, all arms): 67%
- 'mood altered' AEs positive or neutral in nature (all arms): 96%
- Median duration of adverse events (all treatment arms, 12-week trial): one
- Incidence of Illusion, Hallucination (visual), Mood altered, Headache, Fatigue and Euphoric mood compared to placebo (both 10 and 25 mg): higher
- Adverse events likely to be psychedelic in nature resolved on the day of onset or within a day of onset (human, in vivo, oral, 12 weeks): 92%
